Experimental data as given in patent US9695155B2, “Herbicidal substituted pyrimidinyloxy benzene compounds” (E. I. DU PONT DE NEMOURS AND COMPANY, priority 2013, dated 2017).

How the values were obtained:
pigweed [1] = experiment: Test A postemergence; type: in vivo, Amaranthus retroflexus
Method in brief: (§1)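 Compounds in non-phytotoxic solvent with surfactant applied as soil spray preemergence, or postemergence to plants 2-10 cm at one- to two-leaf stage, in loam/sand. After approximately 10 days in greenhouse, injury rated visually versus untreated controls, 0 (no effect) to 100 (complete control).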

sedge, umbrella = experiment: Test B flooded paddy test; type: in vivo, Cyperus difformis; conditions: Flood, 250 g ai/ha; 0 to 100 scale where 0 is no effect and 100 is complete control
Method in brief: (§2)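 Scores from 0 (no effect) to 100 (complete control) are visual comparisons with controls, taken 13 to 15 days after compound was applied into floodwater 3 cm deep around 2-leaf plants.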

barnyardgrass [2] = experiment: Test A preemergence; type: in vivo, Echinochloa crus-galli
Method in brief: as §1

johnsongrass = experiment: Test C postemergence; type: in vivo, Sorghum halepense; conditions: for Plant response rating (0 to 100), Johnsongrass: 0 is no effect, 100 is complete control; for Johnsongrass plant response rating: 31 g ai/ha; for Johnsongrass plant response rating / Plant response rating, Johnsongrass: scale 0 to 100 (0 no effect, 100 complete control)
Method in brief: (§3)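 Injury was assessed visually against controls 13 to 15 days after application, with 0 meaning no effect and 100 full control; missing entries are shown as a dash. Preemergence sprays hit seeded loam–sand soil, postemergence sprays hit 1- to 4-leaf plants.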

barnyardgrass [3] = experiment: Test B flooded paddy test; type: in vivo, Echinochloa crus-galli; conditions: Flood, 250 g ai/ha; 0 to 100 scale where 0 is no effect and 100 is complete control
Method in brief: as §2

chickweed = experiment: Test C postemergence; type: in vivo, Stellaria media; conditions: for Plant response rating (0 to 100), Chickweed: 0 is no effect, 100 is complete control; for Chickweed plant response rating: 31 g ai/ha; for Chickweed plant response rating / Plant response rating, Chickweed: scale 0 to 100 (0 no effect, 100 complete control)
Method in brief: as §3

giant foxtail [4] = experiment: Test A preemergence; type: in vivo, Setaria faberii
Method in brief: as §1

corn = experiment: Test C postemergence; type: in vivo, Zea mays; conditions: for Plant response rating (0 to 100), Corn: 0 is no effect, 100 is complete control; for Corn plant response rating: 31 g ai/ha; for Corn plant response rating / Plant response rating, Corn: scale 0 to 100 (0 no effect, 100 complete control)
Method in brief: as §3

blackgrass = experiment: Test C postemergence; type: in vivo, Alopecurus myosuroides; conditions: for Plant response rating (0 to 100), Blackgrass: 0 is no effect, 100 is complete control; for Blackgrass plant response rating / Plant response rating, Blackgrass: scale 0 to 100 (0 no effect, 100 complete control)
Method in brief: as §3

giant foxtail [5] = experiment: Test C postemergence; type: in vivo, Setaria faberii; conditions: for Plant response rating (0 to 100), Foxtail, Giant: 0 is no effect, 100 is complete control; for Foxtail, Giant plant response rating: 31 g ai/ha; for Foxtail, Giant plant response rating / Plant response rating, Foxtail, Giant: scale 0 to 100 (0 no effect, 100 complete control)
Method in brief: as §3

Italian ryegrass = experiment: Test C postemergence; type: in vivo, Lolium multiflorum; conditions: for Plant response rating (0 to 100), Ryegrass, Italian: 0 is no effect, 100 is complete control; for Ryegrass, Italian plant response rating: 31 g ai/ha; for Ryegrass, Italian plant response rating / Plant response rating, Ryegrass, Italian: scale 0 to 100 (0 no effect, 100 complete control)
Method in brief: as §3

pigweed [6] = experiment: Test A preemergence; type: in vivo, Amaranthus retroflexus
Method in brief: as §1

large (Lg) crabgrass = experiment: Test C postemergence; type: in vivo, Digitaria sanguinalis; conditions: for Plant response rating (0 to 100), Crabgrass, Large: 0 is no effect, 100 is complete control; for Crabgrass, Large plant response rating: 31 g ai/ha; for Crabgrass, Large plant response rating / Plant response rating, Crabgrass, Large: scale 0 to 100 (0 no effect, 100 complete control)
Method in brief: as §3

[7] = 31 g ai/ha, 0 to 100 scale, 0 no effect, 100 complete control
[8] = 125 g ai/ha, 0 to 100 scale where 0 is no effect and 100 is complete control
[9] = 31 g ai/ha, 0 to 100 scale where 0 is no effect and 100 is complete control, visual, approximately 10 days
[10] = postemergence, visual rating, 13 to 15 days
[11] = 31 g ai/ha, postemergence, visual rating, 13 to 15 days
[12] = 125 g ai/ha, 0 to 100 scale, 0 no effect, 100 complete control
[13] = 500 g ai/ha, 0 to 100 scale where 0 is no effect and 100 is complete control
[14] = 125 g ai/ha, postemergence, visual rating
[15] = Postemergence, 62 g ai/ha, 13 to 15 days
[16] = 1000 g ai/ha, 0 to 100 scale, 0 no effect, 100 complete control
[17] = 1000 g ai/ha, 0 to 100 scale, 0 no effect, 100 complete control, approx. 10 days

SMILES	Plant response rating, Sedge, Umbrella (sedge, umbrella)	Plant response rating (0 to 100), Johnsongrass (johnsongrass; 16 g ai/ha, postemergence)	Johnsongrass plant response rating (johnsongrass; [10])	Plant response rating, Barnyardgrass (barnyardgrass [3])	Plant response rating (0 to 100), Chickweed (chickweed; 16 g ai/ha, postemergence)	Chickweed plant response rating (chickweed; [10])	Plant response rating (0 to 100), Corn (corn; 16 g ai/ha, postemergence)	Corn plant response rating (corn; [10])	Plant response rating (0 to 100), Blackgrass (blackgrass; 16 g ai/ha, postemergence)	Blackgrass plant response rating (blackgrass; [11])	Plant response rating (0 to 100), Foxtail, Giant (giant foxtail [5]; 16 g ai/ha, postemergence)	Foxtail, Giant plant response rating (giant foxtail [5]; [10])	Plant response rating (0 to 100), Ryegrass, Italian (Italian ryegrass; 16 g ai/ha, postemergence)	Ryegrass, Italian plant response rating (Italian ryegrass; [10])	Plant response rating (0 to 100), Crabgrass, Large (large (Lg) crabgrass; 16 g ai/ha, postemergence)	Crabgrass, Large plant response rating (large (Lg) crabgrass; [10])	Plant response rating, Johnsongrass (johnsongrass; [14])	Plant response rating, Chickweed (chickweed; [14])	Plant response rating, Corn (corn; [14])	Plant response rating, Blackgrass (blackgrass; [14])	other results
FCc1cccc(Oc2ncc(F)cn2)c1-n1cc(I)cn1 [Compound 152]	50	5	5	0	10	30	5	5	0	0	5	5	0	0	5	5					Plant response rating, Pigweed (pigweed [1]; [7]): 0; Pigweed plant response rating (pigweed [1]; [8]): 90; Plant response rating, Barnyardgrass (barnyardgrass [2]; [9]): 20; Plant response rating, Barnyardgrass (barnyardgrass [2]; [8]): 70; Plant response rating (0 to 100), Johnsongrass (johnsongrass; 8 g ai/ha, postemergence): 0; Plant response rating (0 to 100), Chickweed (chickweed; 4 g ai/ha, postemergence): 5; Plant response rating (0 to 100), Chickweed (chickweed; 8 g ai/ha, postemergence): 5; Plant response rating, Foxtail, Giant (giant foxtail [4]; [9]): 10; Plant response rating, Foxtail, Giant (giant foxtail [4]; [8]): 100; Plant response rating (0 to 100), Corn (corn; 4 g ai/ha, postemergence): 0; Plant response rating (0 to 100), Corn (corn; 8 g ai/ha, postemergence): 0; Plant response rating (0 to 100), Blackgrass (blackgrass; 4 g ai/ha, postemergence): 0; Plant response rating (0 to 100), Blackgrass (blackgrass; 8 g ai/ha, postemergence): 0; Plant response rating (0 to 100), Foxtail, Giant (giant foxtail [5]; 8 g ai/ha, postemergence): 0; Plant response rating (0 to 100), Ryegrass, Italian (Italian ryegrass; 8 g ai/ha, postemergence): 0; Plant response rating, Pigweed (pigweed [6]; [9]): 90; Plant response rating, Pigweed (pigweed [6]; [8]): 90; Plant response rating (0 to 100), Crabgrass, Large (large (Lg) crabgrass; 8 g ai/ha, postemergence): 5
N#Cc1cnn(-c2c(Oc3ncc(F)cn3)cccc2C(F)F)c1 [Compound 240]	30	10	5	0	5	5	0	5	0	0	0	35	0	0	10	5	10	55	15	5	Plant response rating, Pigweed (pigweed [1]; [12]): 100; Plant response rating, Pigweed (pigweed [1]; [13]): 100; Barnyardgrass plant response rating (0 to 100 scale, 0 is no effect, 100 is complete control) (barnyardgrass [2]; 125 g ai/ha): 90; Barnyardgrass plant response rating (barnyardgrass [2]; [13]): 100; Plant response rating, Johnsongrass (johnsongrass; [15]): 5; Plant response rating, Chickweed (chickweed; [15]): 55; Foxtail, Giant plant response rating (0 to 100 scale) (giant foxtail [4]; 125 g ai/ha): 100; Foxtail, Giant plant response rating (giant foxtail [4]; [13]): 100; Plant response rating, Corn (corn; [15]): 5; Plant response rating, Blackgrass (blackgrass; [15]): 0; Plant response rating, Foxtail, Giant (giant foxtail [5]; [14]): 40; Plant response rating, Foxtail, Giant (giant foxtail [5]; [15]): 20; Plant response rating, Ryegrass, Italian (Italian ryegrass; [14]): 0; Plant response rating, Ryegrass, Italian (Italian ryegrass; [15]): 0; Pigweed plant response rating (0 to 100 scale) (pigweed [6]; 125 g ai/ha): 100; Pigweed plant response rating (pigweed [6]; [13]): 100; Plant response rating, Crabgrass, Large (large (Lg) crabgrass; [14]): 20; Plant response rating, Crabgrass, Large (large (Lg) crabgrass; [15]): 5
FCc1cccc(Oc2ncc(Cl)cn2)c1-n1cc(I)cn1 [Compound 245]	60	5	5	0	5	60	5	5	0	0	35	35	0	0	5	5	10	100	5	5	Plant response rating, Pigweed (pigweed [1]; [7]): 0; Plant response rating, Pigweed (pigweed [1]; [12]): 90; Plant response rating, Barnyardgrass (barnyardgrass [2]; [9]): 0; Barnyardgrass plant response rating (0 to 100 scale, 0 is no effect, 100 is complete control) (barnyardgrass [2]; 125 g ai/ha): 70; Plant response rating, Johnsongrass (johnsongrass; [15]): 10; Plant response rating, Chickweed (chickweed; [15]): 80; Plant response rating, Foxtail, Giant (giant foxtail [4]; [9]): 60; Foxtail, Giant plant response rating (0 to 100 scale) (giant foxtail [4]; 125 g ai/ha): 100; Plant response rating, Corn (corn; [15]): 5; Plant response rating, Blackgrass (blackgrass; [15]): 5; Plant response rating, Foxtail, Giant (giant foxtail [5]; [14]): 15; Plant response rating, Foxtail, Giant (giant foxtail [5]; [15]): 20; Plant response rating, Ryegrass, Italian (Italian ryegrass; [14]): 5; Plant response rating, Ryegrass, Italian (Italian ryegrass; [15]): 0; Plant response rating, Pigweed (pigweed [6]; [9]): 90; Pigweed plant response rating (0 to 100 scale) (pigweed [6]; 125 g ai/ha): 90; Plant response rating, Crabgrass, Large (large (Lg) crabgrass; [14]): 15; Plant response rating, Crabgrass, Large (large (Lg) crabgrass; [15]): 10
FCc1cn(-c2ccccc2Oc2ncc(Cl)cn2)nn1 [Compound 123]	40	10		35	5		0		0		0		0		0		10	60	5	0	Plant response rating, Pigweed (pigweed [1]; [16]): 100; Plant response rating, Barnyardgrass (barnyardgrass [2]; [16]): 100; Plant response rating, Johnsongrass (johnsongrass; Postemergence, 62 g ai/ha): 10; Plant response rating, Chickweed (chickweed; Postemergence, 62 g ai/ha): 50; Foxtail, Giant plant response rating (giant foxtail [4]; [17]): 100; Plant response rating, Corn (corn; Postemergence, 62 g ai/ha): 5; Plant response rating, Blackgrass (blackgrass; Postemergence, 31 g ai/ha, 13 to 15 days): 0; Plant response rating, Blackgrass (blackgrass; Postemergence, 62 g ai/ha): 0; Plant response rating, Foxtail, Giant (giant foxtail [5]; [14]): 20; Plant response rating, Foxtail, Giant (giant foxtail [5]; Postemergence, 62 g ai/ha): 20; Plant response rating, Ryegrass, Italian (Italian ryegrass; [14]): 0; Plant response rating, Ryegrass, Italian (Italian ryegrass; Postemergence, 62 g ai/ha): 0; Pigweed plant response rating (pigweed [6]; [17]): 100; Plant response rating, Crabgrass, Large (large (Lg) crabgrass; [14]): 5; Plant response rating, Crabgrass, Large (large (Lg) crabgrass; Postemergence, 62 g ai/ha): 5
